# Laboratory results: the supplement of paper PMC10307832
# Compound: C=CCn1c(=O)c2cnc(Nc3ccc(N4CCN(C)CC4)cc3)nc2n1-c1cccc(C(C)(C)O)n1 [Adavosertib] + CC(C)C[C@H](NC(=O)[C@H](Cc1ccccc1)NC(=O)c1cnccn1)B(O)O [Bortezomib] (partner 0.002 µM)
# Test: relative viability (nuclei count vs DMSO), 5 days (fraction); higher = more cells survive
# Conditions: first compound 0.01 µM
# In short: (§1)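 Nuclei were stained with Hoechst during a one-step fixation (final 0.05% Triton X-100, 1% formaldehyde, 1 ug/ml Hoechst) carried out 5 days after dosing, then counted on 4× images. The cells, lung cancer lines in 1536-well plates, had been dosed by pin tool the day after seeding with one drug alone or a fixed anchor-drug dose plus five library-drug doses (not always all listed) in √10 steps. Relative viability is the nuclei count in treated wells divided by that in vehicle wells, and each value is the median of duplicate plates.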
row,Cell Line,relative viability
1,201T,1.06
2,A-427,0.906
3,ABC-1,0.247
4,BEN,0.807
5,COR-L23,0.976
6,COR-L 105,0.984
7,Calu-6,0.93
8,ChaGo-K-1,0.872
9,EBC-1,0.719
10,EKVX,0.992
11,EPLC-272H,0.959
12,H3255,0.539
13,HARA,0.981
14,HCC-15,1.01
15,HCC-44,0.889
16,HCC-78,0.542

row,Cell Line,relative viability
1,HCC-366,1.03
2,HCC-827,1.02
3,HOP-62,0.941
4,IA-LM,0.899
5,LC-2-ad,1.11
6,LCLC-97TM1,0.284
7,LCLC-103H,1.03
8,LOU-NH91,0.484
9,LU99A,1.34
10,LXF-289,0.959
11,NCI-H23,0.97
12,NCI-H441,0.38
13,NCI-H1299,1.02
14,NCI-H1563,0.9
15,NCI-H1703,0.461
16,NCI-H2228,0.875

# Same assay, conditions: first compound 0.03162 µM
row,Cell Line,relative viability
1,201T,1.06
2,A-427,1.04
3,ABC-1,0.329
4,BEN,0.986
5,CAL-12T,0.817
6,COR-L23,1.03
7,COR-L 105,0.719
8,Calu-6,1.01
9,ChaGo-K-1,0.838
10,EBC-1,0.653
11,EKVX,1.14
12,EPLC-272H,0.805
13,H3255,0.885
14,HARA,1.17
15,HCC-15,0.953
16,HCC-44,0.95
17,HCC-78,0.46

row,Cell Line,relative viability
1,HCC-366,1.05
2,HCC-827,1.04
3,HOP-62,1.08
4,IA-LM,0.989
5,LC-2-ad,1.08
6,LCLC-97TM1,0.635
7,LCLC-103H,1.1
8,LOU-NH91,0.502
9,LU99A,0.998
10,LXF-289,0.948
11,NCI-H23,1.05
12,NCI-H322M,1.17
13,NCI-H441,0.761
14,NCI-H1299,1.03
15,NCI-H1563,0.901
16,NCI-H1703,0.366
17,NCI-H2228,0.941

# Same assay, conditions: first compound 0.1 µM
row,Cell Line,relative viability
1,201T,1.16
2,A-427,0.964
3,ABC-1,0.255
4,BEN,0.811
5,CAL-12T,0.946
6,COR-L23,0.95
7,COR-L 105,0.855
8,Calu-6,1.05
9,ChaGo-K-1,0.897
10,EBC-1,0.562
11,EKVX,0.996
12,EPLC-272H,0.866
13,H3255,0.699
14,HARA,1.13
15,HCC-15,1.07
16,HCC-44,0.89
17,HCC-78,0.529

row,Cell Line,relative viability
1,HCC-366,1.1
2,HCC-827,1.06
3,HOP-62,1.03
4,IA-LM,0.893
5,LC-2-ad,1.09
6,LCLC-97TM1,0.577
7,LCLC-103H,1.05
8,LOU-NH91,0.502
9,LU99A,1.09
10,LXF-289,0.999
11,NCI-H23,0.844
12,NCI-H322M,1.2
13,NCI-H441,0.414
14,NCI-H1299,1.09
15,NCI-H1563,0.86
16,NCI-H1703,0.464
17,NCI-H2228,0.818

# Same assay, conditions: first compound 0.3162 µM
row,Cell Line,relative viability
1,201T,1.14
2,A-427,0.861
3,ABC-1,0.332
4,BEN,0.851
5,CAL-12T,0.68
6,COR-L23,0.546
7,COR-L 105,0.627
8,Calu-6,0.386
9,ChaGo-K-1,0.699
10,EBC-1,0.493
11,EKVX,1.27
12,EPLC-272H,0.732
13,H3255,0.845
14,HARA,0.938
15,HCC-15,1.26
16,HCC-44,1.04
17,HCC-78,0.573

row,Cell Line,relative viability
1,HCC-366,1.05
2,HCC-827,1.06
3,HOP-62,1.03
4,IA-LM,0.774
5,LC-2-ad,1.16
6,LCLC-97TM1,0.233
7,LCLC-103H,1.08
8,LOU-NH91,0.489
9,LU99A,0.827
10,LXF-289,0.999
11,NCI-H23,0.327
12,NCI-H322M,0.869
13,NCI-H441,0.354
14,NCI-H1299,1.02
15,NCI-H1563,0.869
16,NCI-H1703,0.18
17,NCI-H2228,0.358

# Compound: C=CCn1c(=O)c2cnc(Nc3ccc(N4CCN(C)CC4)cc3)nc2n1-c1cccc(C(C)(C)O)n1 [Adavosertib] + CC(=O)Nc1cccc(-n2c(=O)n(C3CC3)c(=O)c3c(Nc4ccc(I)cc4F)n(C)c(=O)c(C)c32)c1 [Trametinib] (partner 0.02 µM)
# Test: as above
# Conditions: first compound 0.01 µM
# In short: as §1
row,Cell Line,relative viability
1,201T,0.657
2,A-427,0.771
3,BEN,1.02
4,CAL-12T,0.334
5,COR-L23,0.622
6,COR-L 105,0.436
7,ChaGo-K-1,0.884
8,EKVX,0.327
9,EPLC-272H,0.293
10,H3255,0.576
11,HARA,0.696
12,HCC-15,0.399
13,HCC-44,1.08
14,HCC-78,0.859
15,HCC-366,0.387
16,HCC-827,0.533
17,HOP-62,0.357
18,LC-2-ad,0.865
19,LCLC-97TM1,0.223

row,Cell Line,relative viability
1,LCLC-103H,0.641
2,LK-2,0.759
3,LOU-NH91,0.773
4,LU99A,0.624
5,LXF-289,0.746
6,NCI-H23,0.363
7,NCI-H322M,0.48
8,NCI-H358,0.132
9,NCI-H441,0.432
10,NCI-H522,0.797
11,NCI-H1395,1.06
12,NCI-H1648,0.536
13,NCI-H1793,0.44
14,NCI-H1944,0.376
15,NCI-H2170,0.946
16,NCI-H2342,0.922
17,SK-MES-1,0.556
18,SW 900,0.682

# Same assay, conditions: first compound 0.03162 µM
row,Cell Line,relative viability
1,201T,0.707
2,A-427,0.808
3,BEN,1
4,CAL-12T,0.338
5,COR-L23,0.577
6,COR-L 105,0.463
7,ChaGo-K-1,0.844
8,EKVX,0.34
9,EPLC-272H,0.309
10,H3255,0.591
11,HARA,0.729
12,HCC-15,0.402
13,HCC-44,1.05
14,HCC-78,0.737
15,HCC-366,0.353
16,HCC-827,0.567
17,HOP-62,0.406
18,LC-2-ad,0.908
19,LCLC-97TM1,0.171

row,Cell Line,relative viability
1,LCLC-103H,0.688
2,LK-2,0.823
3,LOU-NH91,0.799
4,LU99A,0.61
5,LXF-289,0.696
6,NCI-H23,0.395
7,NCI-H322M,0.489
8,NCI-H358,0.124
9,NCI-H441,0.509
10,NCI-H522,0.75
11,NCI-H1395,1.12
12,NCI-H1648,0.473
13,NCI-H1793,0.421
14,NCI-H1944,0.377
15,NCI-H2170,0.972
16,NCI-H2228,0.498
17,NCI-H2342,0.829
18,SK-MES-1,0.576
19,SW 900,0.892

# Same assay, conditions: first compound 0.1 µM
row,Cell Line,relative viability
1,201T,0.736
2,A-427,0.805
3,BEN,1.27
4,CAL-12T,0.312
5,COR-L23,0.565
6,COR-L 105,0.48
7,ChaGo-K-1,0.901
8,EKVX,0.377
9,EPLC-272H,0.288
10,H3255,0.616
11,HARA,0.75
12,HCC-15,0.377
13,HCC-44,1.19
14,HCC-78,0.888
15,HCC-366,0.352
16,HCC-827,0.492
17,HOP-62,0.356
18,LC-2-ad,0.914
19,LCLC-97TM1,0.227

row,Cell Line,relative viability
1,LCLC-103H,0.668
2,LK-2,0.701
3,LOU-NH91,0.828
4,LU99A,0.634
5,LXF-289,0.701
6,NCI-H23,0.339
7,NCI-H322M,0.471
8,NCI-H358,0.124
9,NCI-H441,0.373
10,NCI-H522,0.736
11,NCI-H1395,1.08
12,NCI-H1648,0.594
13,NCI-H1793,0.501
14,NCI-H1944,0.378
15,NCI-H2170,0.831
16,NCI-H2228,0.465
17,NCI-H2342,0.776
18,SK-MES-1,0.529
19,SW 900,0.957

# Same assay, conditions: first compound 0.3162 µM
row,Cell Line,relative viability
1,201T,0.718
2,A-427,0.565
3,BEN,1.18
4,CAL-12T,0.29
5,COR-L23,0.251
6,COR-L 105,0.347
7,ChaGo-K-1,0.883
8,EKVX,0.401
9,EPLC-272H,0.275
10,H3255,0.634
11,HARA,0.611
12,HCC-15,0.379
13,HCC-44,1.12
14,HCC-78,0.852
15,HCC-366,0.344
16,HCC-827,0.522
17,HOP-62,0.384
18,LC-2-ad,1.04
19,LCLC-97TM1,0.21

row,Cell Line,relative viability
1,LCLC-103H,0.7
2,LK-2,0.84
3,LOU-NH91,0.774
4,LU99A,0.464
5,LXF-289,0.678
6,NCI-H23,0.226
7,NCI-H322M,0.389
8,NCI-H358,0.124
9,NCI-H441,0.423
10,NCI-H522,0.653
11,NCI-H1395,0.864
12,NCI-H1648,0.448
13,NCI-H1793,0.395
14,NCI-H1944,0.372
15,NCI-H2170,0.745
16,NCI-H2228,0.404
17,NCI-H2342,0.848
18,SK-MES-1,0.486
19,SW 900,0.696

# Compound: C=CCn1c(=O)c2cnc(Nc3ccc(N4CCN(C)CC4)cc3)nc2n1-c1cccc(C(C)(C)O)n1 [Adavosertib] + Nc1ncn([C@H]2C[C@H](O)[C@@H](CO)O2)c(=O)n1 [Decitabine] (partner 2 µM)
# Test: as above
# Conditions: first compound 0.01 µM
# In short: as §1
row,Cell Line,relative viability
1,201T,0.851
2,A549,0.28
3,A-427,0.53
4,ABC-1,1.28
5,BEN,0.684
6,COR-L23,0.45
7,COR-L 105,0.691
8,ChaGo-K-1,0.554
9,EKVX,0.329
10,EPLC-272H,0.355
11,H3255,0.636
12,HARA,0.486
13,HCC-15,0.714
14,HCC-44,0.935
15,HCC-78,0.661
16,HCC-366,0.369

row,Cell Line,relative viability
1,HCC-827,0.15
2,HOP-62,0.27
3,LC-2-ad,0.696
4,LCLC-97TM1,0.262
5,LCLC-103H,0.71
6,LK-2,0.254
7,LOU-NH91,0.819
8,LU99A,0.942
9,LXF-289,0.362
10,NCI-H23,0.299
11,NCI-H322M,0.724
12,NCI-H358,0.246
13,NCI-H441,0.29
14,NCI-H522,0.691
15,NCI-H1395,0.702
16,NCI-H1648,0.491
